# Experimental data as given in patent US20120028252A1, “HUMAN MENA ISOFORMS SERVE AS MARKERS OF EPITHELIAL TO MESENCHYMAL TRANSITION AND SENSITIVITY TO EGFR INHIBITION IN HUMAN CANCER CELLS” (priority 2008, published 2012).
# What was measured:
# [1] = system: hMena and hMena^+11a in breast cancer cell lines; details: cited from earlier work
# [2] = system: hMena and hMena^+11a protein in BxPC3 cells; experiment: Western blot of hMena expression after EGF and erlotinib treatment, BxPC3; type: cell-based, human
# Experimental: (§1) Cell treatments. Cells were grown in six-well plates to confluence in RPMI supplemented with 10% fetal bovine serum. After 18 hours in serum-free medium, the cells were treated with different amounts of rhEGF (Promega) for 24 hours. Erlotinib (10 μmol/L) was added 2 hours before EGF treatment. Western blot analyses. Cells were lysed as reported (32). Lysates (30 or 100 μg) were resolved on 10% polyacrylamide gel and transferred to nitrocellulose membranes (GE Healthcare, Piscataway, N.J.). Membranes were blocked in 5% non-fat milk in Tris-buffered saline (TBS) containing 0.1% Tween 20 (TBS-T) for 1 hour at room temperature, incubated overnight with relevant antibodies, washed, and probed with species-specific secondary antibodies coupled to horseradish peroxidase, and detected by enhanced chemiluminescence (Amersham Biosciences).
# [3] = system: Hs766T pancreatic cancer cell line; experiment: Proliferation assay (cellular ATP, Vialight); type: cell-based, human; details: erlotinib 10 μmol/L
# Experimental: (§5) The effects of increasing concentrations of erlotinib (0.1 to 10 μmol/L) on cell proliferation were assessed by measuring the intracellular ATP content using the Vialight assay. Results are expressed as percentage inhibition of ATP incorporation relative to untreated cells. […] Proliferation assays. Cell proliferation was determined by measurement of cellular ATP levels with a high sensitivity cell proliferation/cytotoxicity kit (Vialight Plus, Cambrex Bio Sci Rockland Inc., Rockland, Me.). Briefly, cells were plated in 96-well plates at a density of 1×10^4 per well and exposed 24 hours later to various concentrations of erlotinib (0.1-10 μmol/L) in serum-free media. After 24 hours nucleotide (ATP) releasing reagent (100 μl) was added to each well and the plate was incubated for 10 min at room temperature. Cell lysate (180 μl) was transferred to a luminescence compatible plate. The 96-well plates were read using a Perkin Elmer LS 50B luminometer. ATP levels in cells were normalized to levels in untreated control cultures.
# [4] = system: Panc1 cells; experiment: Proliferation assay after hMena siRNA knock-down, Panc1; type: cell-based, human; details: hMena siRNA construct (48 h) plus erlotinib (100 nM, 24 h)
# Experimental: (§2) Silencing of hMena reduces the baseline growth rate in BxPC3 compared with the growth rate of untransfected cells and cells transfected with non specific siRNA (45% vs 100%, P<0.01). […] Proliferation assays were conducted 72 h after the siRNA transfection.
# (§3) Proliferation assays. Cell proliferation was determined by measurement of cellular ATP levels with a high sensitivity cell proliferation/cytotoxicity kit (Vialight Plus, Cambrex Bio Sci Rockland Inc., Rockland, Me.). Briefly, cells were plated in 96-well plates at a density of 1×10^4 per well and exposed 24 hours later to various concentrations of erlotinib (0.1-10 μmol/L) in serum-free media. After 24 hours nucleotide (ATP) releasing reagent (100 μl) was added to each well and the plate was incubated for 10 min at room temperature. Cell lysate (180 μl) was transferred to a luminescence compatible plate. The 96-well plates were read using a Perkin Elmer LS 50B luminometer. ATP levels in cells were normalized to levels in untreated control cultures.
# (§4) Small interfering RNA treatment. Cells in exponential growth phase were transfected with 100 nmol/L hMena-specific pooled small interfering RNA (siRNA) duplexes (siENA SMART pool) or control non-specific siRNA (Dharmacon, Lafayette, Colo.) using LipofectAMINE 2000 reagent (Invitrogen, Paisley, United Kingdom). […]
# [5] = system: MiaPaCa-2 pancreatic cancer cell line; experiment: Proliferation assay (cellular ATP, Vialight); type: cell-based, human; details: erlotinib 10 μmol/L
# Experimental: as §5
# [6] = system: Panc1 pancreatic cancer cell line; experiment: Proliferation assay (cellular ATP, Vialight); type: cell-based, human; details: erlotinib 10 μmol/L
# Experimental: as §5
# [7] = system: PT45 pancreatic cancer cell line; experiment: Proliferation assay (cellular ATP, Vialight); type: cell-based, human; details: erlotinib 10 μmol/L
# Experimental: (§6) The effects of increasing concentrations of erlotinib (0.1 to 10 μmol/L) on cell proliferation were assessed by measuring the intracellular ATP content using the Vialight assay. Results are expressed as percentage inhibition of ATP incorporation relative to untreated cells. […] Cell proliferation was determined by measurement of cellular ATP levels with a high sensitivity cell proliferation/cytotoxicity kit (Vialight Plus, Cambrex Bio Sci Rockland Inc., Rockland, Me.). Briefly, cells were plated in 96-well plates at a density of 1×10^4 per well and exposed 24 hours later to various concentrations of erlotinib (0.1-10 μmol/L) in serum-free media. After 24 hours nucleotide (ATP) releasing reagent (100 μl) was added to each well and the plate was incubated for 10 min at room temperature. Cell lysate (180 μl) was transferred to a luminescence compatible plate. The 96-well plates were read using a Perkin Elmer LS 50B luminometer. ATP levels in cells were normalized to levels in untreated control cultures.
# [8] = system: BxPC3 cells; experiment: Proliferation assay after hMena siRNA knock-down, BxPC3; type: cell-based, human
# Experimental: as §2, §3, §4
# [9] = system: T3M4 pancreatic cancer cell line; experiment: Proliferation assay (cellular ATP, Vialight); type: cell-based; details: Homo sapiens, erlotinib 1 μmol/L, 24 hours, serum-free media
# Experimental: as §6
# [10] = system: L3.6 μl human pancreatic cancer cell line; experiment: Proliferation assay (cellular ATP, Vialight); type: cell-based; details: erlotinib 1 μmol/L, 24 hours, serum-free media
# Experimental: as §6
# [11] = system: PACA44 pancreatic cancer cell line; experiment: Proliferation assay (cellular ATP, Vialight); type: cell-based; details: Homo sapiens, PaCa-44; erlotinib 1 μmol/L, 24 hours, serum-free media
# Experimental: as §6
# [12] = system: BxPC3 pancreatic cancer cell line; experiment: Proliferation assay (cellular ATP, Vialight); type: cell-based; details: Homo sapiens, BXPC-3; erlotinib 1 μmol/L, 24 hours, serum-free media
# Experimental: as §6
# [13] = system: hMena and hMena^+11a protein in Panc1 cells; experiment: Western blot of hMena expression after EGF and erlotinib treatment, Panc1; type: cell-based, human; details: EGF 50 and 100 ng/ml, 24 hours
# Experimental: as §1
molecule,measurement,setting,value
COc1cc2ncnc(Nc3cccc(Cl)c3)c2cc1OC [AG1478],EGF-promoted up-regulation of hMena and hMena^+11a and increase of phosphorylated hMena^+11a,[1]; pre-treatment of breast cancer cell lines before EGF,inhibited
C#Cc1cccc(Nc2ncnc3cc(OCCOC)c(OCCOC)cc23)c1 [erlotinib],hMena expression,"[2]; erlotinib (10 μmol/L, 2 hours before EGF) added to EGF-treated BxPC3 cells",down regulated
same,growth rate,[3],not significantly affected
same,"proliferation, combined exposure",[4],did not
same,growth rate,[5],not significantly affected
same,growth rate,[6],not significantly affected
same,growth rate,[7],not significantly affected
same,"proliferation, combined exposure","[8]; hMena siRNA construct (48 h) plus erlotinib (100 nM, 24 h), BxPC3",additive decrease
same,cell proliferation,[8]; hMena-silenced BxPC3 cells treated with erlotinib 0.1 μM/L for 24 h,dramatic decrease
same,inhibition at 1 µM,[9],≥ 50%
same,inhibition at 1 µM,[10],≥ 50%
same,inhibition at 1 µM,[11],≥ 50%
same,inhibition at 1 µM,[12],≥ 50%
"EGF: Recombinant human EGF purchased from Promega (NSDSECPLSHDGYCLHDGVCMYIEALDKYACNCVVGYIGERCQYRDLKWWELR; UniProt P01133 971-1023, looked up)",hMena and hMena^+11a protein level,"[2]; EGF 50 and 100 ng/ml, 24 hours, BxPC3",clearly increased
same,hMena and hMena^+11a expression,[1]; EGF treatment of breast cancer cell lines,up-regulation
same,hMena^+11a expression and phosphorylation,"[1]; HER2 activation by EGF and NRG1 treatment, breast cancer cell lines",up-regulation and phosphorylation
same,hMena and hMena^+11a protein level,[13],clearly increased
